“And” between values parts separate entries of the source, which are not always exact repeats. Equal entries are not always repeated.
Assays:
[1] = biological target: Glutamate metabotropic receptor 1 (Sus scrofa, UniProt F1S737)
[2] = biological target: Glutamate metabotropic receptor 5 (Cavia porcellus, UniProt H0VDS0)
Chain of Glutamate metabotropic receptor 5 (H0VDS0 whole entry): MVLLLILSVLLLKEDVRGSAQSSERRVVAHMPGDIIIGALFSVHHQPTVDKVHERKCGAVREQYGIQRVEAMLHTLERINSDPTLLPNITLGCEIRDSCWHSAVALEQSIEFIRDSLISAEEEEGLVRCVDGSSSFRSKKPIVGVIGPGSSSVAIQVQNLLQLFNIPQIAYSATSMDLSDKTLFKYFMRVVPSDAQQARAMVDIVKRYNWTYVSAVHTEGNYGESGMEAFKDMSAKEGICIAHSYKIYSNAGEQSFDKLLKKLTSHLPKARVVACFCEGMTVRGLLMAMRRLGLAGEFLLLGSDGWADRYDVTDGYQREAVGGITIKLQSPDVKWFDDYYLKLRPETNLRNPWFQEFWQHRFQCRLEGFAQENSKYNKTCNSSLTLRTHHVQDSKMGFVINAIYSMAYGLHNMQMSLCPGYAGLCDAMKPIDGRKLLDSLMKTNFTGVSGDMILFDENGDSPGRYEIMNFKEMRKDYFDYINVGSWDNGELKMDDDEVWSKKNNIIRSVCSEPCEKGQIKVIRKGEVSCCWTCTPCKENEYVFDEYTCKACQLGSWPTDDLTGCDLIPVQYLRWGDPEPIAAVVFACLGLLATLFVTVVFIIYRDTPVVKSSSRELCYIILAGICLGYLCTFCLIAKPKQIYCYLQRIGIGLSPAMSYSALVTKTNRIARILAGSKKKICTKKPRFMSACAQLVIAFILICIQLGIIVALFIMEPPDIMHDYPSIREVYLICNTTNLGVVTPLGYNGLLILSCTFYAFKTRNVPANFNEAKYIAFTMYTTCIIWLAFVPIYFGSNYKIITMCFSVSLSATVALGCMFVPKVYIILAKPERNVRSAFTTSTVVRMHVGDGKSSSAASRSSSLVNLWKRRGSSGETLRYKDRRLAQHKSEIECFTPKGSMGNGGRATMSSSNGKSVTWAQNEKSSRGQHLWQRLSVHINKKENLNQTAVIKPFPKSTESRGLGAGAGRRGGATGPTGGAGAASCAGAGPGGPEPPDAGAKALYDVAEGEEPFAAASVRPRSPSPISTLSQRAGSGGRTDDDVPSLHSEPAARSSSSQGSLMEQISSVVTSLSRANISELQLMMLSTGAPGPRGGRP

Chain of Glutamate metabotropic receptor 1 (F1S737 whole entry): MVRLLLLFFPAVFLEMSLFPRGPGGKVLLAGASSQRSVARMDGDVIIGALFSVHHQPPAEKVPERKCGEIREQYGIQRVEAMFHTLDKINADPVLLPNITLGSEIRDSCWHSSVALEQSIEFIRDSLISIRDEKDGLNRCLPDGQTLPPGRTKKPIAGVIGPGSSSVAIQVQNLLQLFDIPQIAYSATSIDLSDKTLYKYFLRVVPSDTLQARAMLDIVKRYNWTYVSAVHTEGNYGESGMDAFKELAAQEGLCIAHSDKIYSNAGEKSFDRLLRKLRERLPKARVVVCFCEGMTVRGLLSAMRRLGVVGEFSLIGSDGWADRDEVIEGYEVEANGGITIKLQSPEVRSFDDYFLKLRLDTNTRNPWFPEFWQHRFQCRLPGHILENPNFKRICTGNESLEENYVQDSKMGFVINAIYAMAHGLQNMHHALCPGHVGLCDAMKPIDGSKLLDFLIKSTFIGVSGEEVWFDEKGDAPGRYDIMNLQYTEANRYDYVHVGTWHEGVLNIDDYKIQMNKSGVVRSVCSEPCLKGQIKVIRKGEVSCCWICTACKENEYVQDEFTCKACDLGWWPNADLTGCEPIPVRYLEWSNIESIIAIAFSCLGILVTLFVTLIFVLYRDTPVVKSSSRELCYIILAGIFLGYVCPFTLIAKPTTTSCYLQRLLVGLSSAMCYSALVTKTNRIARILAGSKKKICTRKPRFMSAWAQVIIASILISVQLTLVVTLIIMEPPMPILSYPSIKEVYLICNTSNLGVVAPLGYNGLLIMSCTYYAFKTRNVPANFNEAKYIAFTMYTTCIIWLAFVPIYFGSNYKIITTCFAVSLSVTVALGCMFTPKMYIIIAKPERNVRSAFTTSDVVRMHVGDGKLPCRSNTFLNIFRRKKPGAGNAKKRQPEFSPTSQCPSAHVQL

SMILES | Ki [1] | Ki [2]
N[C@@H](CCC(=O)O)C(=O)O [L-Glutamic acid] | > 10 µM | 9.75 µM and 7.67 µM
NC(C(=O)O)c1cc(=O)[nH]o1 (stereo not given) [Amino-(3-hydroxy-isoxazol-5-yl)-acetic acid(Ibotenic acid)] | > 10 µM | 2.87 µM and 1.93 µM
N[C@]1(C(=O)O)CC[C@@H](C(=O)O)C1 | > 10 µM | > 10 µM
N[C@@]1(C(=O)O)CC[C@H](C(=O)O)C1 [1S, 3R-ACPD] | > 10 µM and 9.3 µM | > 10 µM and 6.7 µM and 5.3 µM
N[C@@H](Cn1oc(=O)[nH]c1=O)C(=O)O [2-amino-3-(3,5-dioxo[1,2,4]oxadiazolidin-2-yl)propionic acid] | 0.26 µM | 0.022 µM and 0.047 µM

From BindingDB's records for PubMed 7751958 (Cnrs Ccipe, 1995)
